From ChEMBL document CHEMBL1909046, “DrugMatrix in vitro pharmacology data”

Assays:
[1] = DRUGMATRIX: Calcium Channel Type L, Dihydropyridine radioligand binding (ligand: [3H] Nitrendipine); format: cell membranes, Rattus norvegicus, Wistar, Cerebral cortex, Membrane; conditions: Not Active = under 50% inhibition at 10 µM
[2] = target: Glycine receptor (Rattus norvegicus, UniProt P22771+P24524+P07727+P20781); format: cell membranes, Wistar, Spinal cord, Membrane; further: in other assays of this panel Not Active means under 50% inhibition at 10 µM
[3] = target: T1, Cysteinyl leukotriene receptor 1 (Homo sapiens, UniProt Q9Y271); format: cell membranes, Membrane; conditions: cho-k1; further: in other assays of this panel Not Active means under 50% inhibition at 10 µM
T1 sequence (Q9Y271 whole entry): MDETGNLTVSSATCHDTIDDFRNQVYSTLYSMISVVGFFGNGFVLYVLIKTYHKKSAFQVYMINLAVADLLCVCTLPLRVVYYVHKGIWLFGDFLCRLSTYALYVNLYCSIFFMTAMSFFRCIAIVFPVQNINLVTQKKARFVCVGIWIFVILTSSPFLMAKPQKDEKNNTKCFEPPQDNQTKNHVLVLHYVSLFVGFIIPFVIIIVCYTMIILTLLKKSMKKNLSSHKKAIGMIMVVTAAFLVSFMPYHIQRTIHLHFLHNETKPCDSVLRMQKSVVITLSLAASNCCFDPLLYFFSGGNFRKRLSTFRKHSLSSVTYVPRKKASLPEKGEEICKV

[4] = target: Melanocortin receptor 3 (Homo sapiens, UniProt P41968); format: cell membranes, Membrane; conditions: hek293; further: in other assays of this panel Not Active means under 50% inhibition at 10 µM
Chain of Melanocortin receptor 3 (P41968 whole entry): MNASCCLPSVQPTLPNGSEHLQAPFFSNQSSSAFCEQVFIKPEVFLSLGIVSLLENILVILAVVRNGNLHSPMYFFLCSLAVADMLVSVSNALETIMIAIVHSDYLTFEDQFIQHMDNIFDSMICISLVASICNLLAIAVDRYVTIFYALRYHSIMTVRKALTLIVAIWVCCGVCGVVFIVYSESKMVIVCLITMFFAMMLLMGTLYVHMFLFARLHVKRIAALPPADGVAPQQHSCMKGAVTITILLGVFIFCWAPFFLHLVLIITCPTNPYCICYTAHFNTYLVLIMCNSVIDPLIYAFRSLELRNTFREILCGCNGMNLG

[5] = target: T2, Muscarinic acetylcholine receptor M5 (Homo sapiens, UniProt P08912); format: cell membranes, Membrane; conditions: cho-k1; further: in other assays of this panel Not Active means under 50% inhibition at 10 µM
T2 sequence (P08912 whole entry): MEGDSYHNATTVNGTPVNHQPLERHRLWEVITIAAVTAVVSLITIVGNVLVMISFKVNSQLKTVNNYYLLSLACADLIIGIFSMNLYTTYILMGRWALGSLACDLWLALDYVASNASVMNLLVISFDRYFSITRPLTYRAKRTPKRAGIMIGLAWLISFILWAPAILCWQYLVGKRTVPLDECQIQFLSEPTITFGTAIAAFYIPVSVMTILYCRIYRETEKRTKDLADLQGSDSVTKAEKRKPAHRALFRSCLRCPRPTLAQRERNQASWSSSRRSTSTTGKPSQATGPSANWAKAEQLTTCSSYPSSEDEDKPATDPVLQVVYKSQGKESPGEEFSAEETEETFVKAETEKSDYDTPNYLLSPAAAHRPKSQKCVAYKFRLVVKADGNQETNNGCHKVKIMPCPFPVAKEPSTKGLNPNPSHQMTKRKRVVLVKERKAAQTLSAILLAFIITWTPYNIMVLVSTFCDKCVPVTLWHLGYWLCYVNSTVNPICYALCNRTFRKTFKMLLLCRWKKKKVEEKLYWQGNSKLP

[6] = target: Kappa-type opioid receptor (Homo sapiens, UniProt P41145); experiment: DRUGMATRIX: Opiate kappa (OP2, KOP) radioligand binding (ligand: [3H] Diprenorphine); format: cell membranes, HEK293, Membrane; conditions: hek293; Not Active = under 50% inhibition at 10 µM
Chain of Kappa-type opioid receptor (P41145 whole entry): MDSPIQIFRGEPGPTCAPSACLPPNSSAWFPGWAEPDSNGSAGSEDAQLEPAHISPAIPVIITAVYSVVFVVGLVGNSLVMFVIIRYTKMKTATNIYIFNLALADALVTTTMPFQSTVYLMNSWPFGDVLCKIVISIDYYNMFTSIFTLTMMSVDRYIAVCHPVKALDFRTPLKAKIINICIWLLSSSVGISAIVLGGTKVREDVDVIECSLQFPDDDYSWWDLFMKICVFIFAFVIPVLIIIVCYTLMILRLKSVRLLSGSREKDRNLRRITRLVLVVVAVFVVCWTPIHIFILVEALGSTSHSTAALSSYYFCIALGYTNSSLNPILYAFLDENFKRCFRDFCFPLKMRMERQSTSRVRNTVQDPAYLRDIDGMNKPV

[7] = DRUGMATRIX: Phosphodiesterase PDE3 enzyme inhibition (substrate: [3H]cAMP + cAMP); format: tissue-based, Homo sapiens; conditions: platelet; Not Active = under 50% inhibition at 10 µM
[8] = target: T3, Angiotensin-converting enzyme (Oryctolagus cuniculus, UniProt P12822); format: tissue-based, Lung
T3 sequence (P12822 whole entry): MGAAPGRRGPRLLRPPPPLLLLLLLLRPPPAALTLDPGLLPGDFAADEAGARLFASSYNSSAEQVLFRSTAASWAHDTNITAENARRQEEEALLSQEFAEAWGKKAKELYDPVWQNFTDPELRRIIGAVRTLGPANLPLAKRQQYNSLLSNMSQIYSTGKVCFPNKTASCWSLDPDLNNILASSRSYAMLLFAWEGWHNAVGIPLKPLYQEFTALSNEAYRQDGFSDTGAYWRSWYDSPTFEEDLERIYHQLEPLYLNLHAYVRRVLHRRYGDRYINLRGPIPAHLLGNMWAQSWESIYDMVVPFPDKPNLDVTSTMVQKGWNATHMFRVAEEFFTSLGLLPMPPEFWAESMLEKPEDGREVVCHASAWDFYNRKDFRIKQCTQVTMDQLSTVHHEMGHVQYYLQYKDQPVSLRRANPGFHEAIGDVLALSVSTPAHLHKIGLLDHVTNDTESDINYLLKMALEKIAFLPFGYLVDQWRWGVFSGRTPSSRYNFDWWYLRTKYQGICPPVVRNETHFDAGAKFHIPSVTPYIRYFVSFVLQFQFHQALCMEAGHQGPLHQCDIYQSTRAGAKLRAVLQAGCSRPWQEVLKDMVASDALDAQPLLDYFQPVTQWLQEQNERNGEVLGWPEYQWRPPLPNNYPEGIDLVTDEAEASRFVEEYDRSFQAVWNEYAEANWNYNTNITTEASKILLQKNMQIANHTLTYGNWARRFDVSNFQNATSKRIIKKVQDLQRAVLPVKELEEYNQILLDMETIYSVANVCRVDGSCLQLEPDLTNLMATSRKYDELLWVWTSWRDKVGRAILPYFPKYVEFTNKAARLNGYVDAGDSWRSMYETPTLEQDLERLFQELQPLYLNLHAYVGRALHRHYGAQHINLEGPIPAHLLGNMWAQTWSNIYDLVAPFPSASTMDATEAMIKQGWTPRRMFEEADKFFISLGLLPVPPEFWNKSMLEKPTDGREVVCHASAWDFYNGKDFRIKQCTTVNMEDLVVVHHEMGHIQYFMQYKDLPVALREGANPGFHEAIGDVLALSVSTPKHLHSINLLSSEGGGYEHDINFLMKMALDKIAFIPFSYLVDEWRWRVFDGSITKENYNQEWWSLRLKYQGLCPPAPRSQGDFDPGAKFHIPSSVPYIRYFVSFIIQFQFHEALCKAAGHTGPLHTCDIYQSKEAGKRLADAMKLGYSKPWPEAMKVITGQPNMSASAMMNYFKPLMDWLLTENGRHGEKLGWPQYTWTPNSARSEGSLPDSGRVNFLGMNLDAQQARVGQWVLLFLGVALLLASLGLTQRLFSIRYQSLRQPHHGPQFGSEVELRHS

O=P(O)(O)C(O)(Cc1cccnc1)P(=O)(O)O [RISEDRONIC ACID]
Not Active: IC50 [1] | Ki [1] | IC50 [2] | IC50 [3] | IC50 [4] | IC50 [5] | IC50 [6] | IC50 [7] | Ki [7] | IC50 [8]

CN(CCOc1ccc(CC2SC(=O)NC2=O)cc1)c1ccccn1 (stereo not given) [ROSIGLITAZONE]
Not Active: IC50 [1] | Ki [1] | IC50 [2] | IC50 [3] | IC50 [4] | IC50 [5] | IC50 [6] | IC50 [7] | Ki [7] | IC50 [8]

C#CCN(C)[C@H](C)Cc1ccccc1 [SELEGILINE]
Not Active: IC50 [1] | Ki [1] | IC50 [2] | IC50 [3] | IC50 [4] | IC50 [5] | IC50 [6] | IC50 [7] | Ki [7] | IC50 [8]

CO[C@H]1C[C@@H]2CC[C@@H](C)[C@@](O)(O2)C(=O)C(=O)N2CCCC[C@H]2C(=O)O[C@H]([C@H](C)C[C@@H]2CC[C@@H](O)[C@H](OC)C2)CC(=O)[C@H](C)/C=C(\C)[C@@H](O)[C@@H](OC)C(=O)[C@H](C)C[C@H](C)/C=C/C=C/C=C/1C [SIROLIMUS]
Not Active: IC50 [1] | Ki [1] | IC50 [2] | IC50 [3] | IC50 [4] | IC50 [5] | IC50 [6] | IC50 [7] | Ki [7] | IC50 [8]

CN[C@@H]1[C@H](O)[C@H](NC)[C@H]2O[C@@]3(O)C(=O)C[C@@H](C)O[C@H]3O[C@@H]2[C@H]1O [SPECTINOMYCIN]
Not Active: IC50 [1] | Ki [1] | IC50 [2] | IC50 [3] | IC50 [4] | IC50 [5] | IC50 [6] | IC50 [7] | Ki [7] | IC50 [8]

Nc1ccc(S(=O)(=O)Nc2ncccn2)cc1 [SULFADIAZINE]
Not Active: IC50 [1] | Ki [1] | IC50 [2] | IC50 [3] | IC50 [4] | IC50 [5] | IC50 [6] | IC50 [7] | Ki [7] | IC50 [8]

COc1ncnc(NS(=O)(=O)c2ccc(N)cc2)c1OC [SULFADOXINE]
Not Active: IC50 [1] | Ki [1] | IC50 [2] | IC50 [3] | IC50 [4] | IC50 [5] | IC50 [6] | IC50 [7] | Ki [7] | IC50 [8]

Nc1ccc(S(=O)(=O)Nc2nccs2)cc1 [SULFATHIAZOLE]
Not Active: IC50 [1] | Ki [1] | IC50 [2] | IC50 [3] | IC50 [4] | IC50 [5] | IC50 [6] | IC50 [7] | Ki [7] | IC50 [8]

C[C@]12CC[C@H]3[C@@H](CCC4=CC(=O)CC[C@@]43C)[C@@H]1CC[C@@H]2O [TESTOSTERONE]
Not Active: IC50 [1] | Ki [1] | IC50 [2] | IC50 [3] | IC50 [4] | IC50 [5] | IC50 [6] | IC50 [7] | Ki [7] | IC50 [8]

CC(C)(C)NC[C@H](O)COc1nsnc1N1CCOCC1 [TIMOLOL]
Not Active: IC50 [1] | Ki [1] | IC50 [2] | IC50 [3] | IC50 [4] | IC50 [5] | IC50 [6] | IC50 [7] | Ki [7] | IC50 [8]

CCS(=O)(=O)CCn1c([N+](=O)[O-])cnc1C [TINIDAZOLE]
Not Active: IC50 [1] | Ki [1] | IC50 [2] | IC50 [3] | IC50 [4] | IC50 [5] | IC50 [6] | IC50 [7] | Ki [7] | IC50 [8]

C[C@@H]1C[C@H]2[C@@H]3CCC4=CC(=O)C=C[C@]4(C)C3=CC[C@]2(C)[C@H]1C(=O)CN1CCN(c2cc(N3CCCC3)nc(N3CCCC3)n2)CC1 [TIRILAZAD]
Not Active: IC50 [1] | Ki [1] | IC50 [2] | IC50 [3] | IC50 [4] | IC50 [5] | IC50 [6] | IC50 [7] | Ki [7] | IC50 [8]

NC[C@H]1O[C@H](O[C@H]2[C@H](O)[C@@H](O[C@H]3O[C@H](CO)[C@@H](O)[C@H](N)[C@H]3O)[C@H](N)C[C@@H]2N)[C@H](N)C[C@@H]1O [TOBRAMYCIN]
Not Active: IC50 [1] | Ki [1] | IC50 [2] | IC50 [3] | IC50 [4] | IC50 [5] | IC50 [6] | IC50 [7] | Ki [7] | IC50 [8]

COc1ccc(CN2CCNCC2)c(OC)c1OC [TRIMETAZIDINE]
Not Active: IC50 [1] | Ki [1] | IC50 [2] | IC50 [3] | IC50 [4] | IC50 [5] | IC50 [6] | IC50 [7] | Ki [7] | IC50 [8]

CC(=O)O[C@H]1C[C@@H]2CC[C@@H]3[C@H](CC[C@@]4(C)[C@H]3C[C@H]([N+]3(C)CCCCC3)[C@@H]4OC(C)=O)[C@@]2(C)C[C@@H]1N1CCCCC1.[Br-] [VECURONIUM BROMIDE]
Not Active: IC50 [1] | Ki [1] | IC50 [2] | IC50 [3] | IC50 [4] | IC50 [5] | IC50 [6] | IC50 [7] | Ki [7] | IC50 [8]

Cc1cn([C@H]2C[C@H](N=[N+]=[N-])[C@@H](CO)O2)c(=O)[nH]c1=O [ZIDOVUDINE]
Not Active: IC50 [1] | Ki [1] | IC50 [2] | IC50 [3] | IC50 [4] | IC50 [5] | IC50 [6] | IC50 [7] | Ki [7] | IC50 [8]
